Data published in patent US20150057349A1 (NESTEC S.A., priority 2012, published 2015).

Assays:
HT-29 clone 34 cells = experiment: Cell viability of HT-29 clone 34 cells (ATP, Cell Titer-Glo); assay type: cell-based, human; conditions: ATP measurement
Procedure: (§1) 10000 cells/well were seeded in 200 μl of culture medium in flat bottom white border 96 well plates (Greiner Bio One, Kremsmuenster, Austria). […] 20 μl of experimental medium containing (or not) LPS 055:B5 or rhTNF-α (100 and 10 ng/ml final, respectively) was added and the plates were incubated for 24 hours at 37° C. in a 5% CO2/air incubator.
Cell viability was determined by measuring ATP using a Cell Titer-Glo kit (Promega). Briefly, remaining adherent HT-29 clone 34 cells were incubated for 10 min at room temperature under horizontal shaking (250 rpm) with 120 μl of Cell Titer-Glo reagent (pre-diluted twice in 1×PBS) and the luminescence was measured using Polarstar microplate reader (BMG, Offenburg, Germany) for 1000 ms with a gain value set to 3500.

NF-κB [1] = experiment: NF-κB activity (secreted alkaline phosphatase) in THP-1 blue cells; assay type: cell-based, human; conditions: THP-1 blue cells stimulated with LPS
Procedure: Human monocytes/macrophages THP-1 blue cells (passage 16-20) (Invivogen, Toulouse, France) were cultured in modified RPMI medium (ATCC, Manassas, Va.) containing 1 mM of sodium pyruvate, 2 mM of L-glutamine, 4.5 g/L of glucose and 10 mM of HEPES supplemented with 10% of heat inactivated FCS (Bioconcept), 1% of Penicillin/Streptomycin (Sigma) and 500 μg/ml of Zeocin (Invivogen) at 37° C. in a 5% CO2/air incubator. 200000 cells/well were seeded in 100 μl of culture medium in 96 well flat bottom transparent plates. […] 20 μl of culture media containing (or not) LPS 055:B5 (Sigma) (100 ng/ml final) was added and the plates were incubated for 16 hours at 37° C. in a 5% CO2/air incubator. Cell culture supernatants were carefully transferred to 96 well-plates for NF-κB activity measurement which is proportional to the level of secreted alkaline phosphatase. Briefly, 100 μl of supernatants were mixed with 150 μl of QuantiBlue (Invivogen) in a 96 well-plates incubated for 3 h at 37° C. before OD measurements at 620 nm with Sunrise microplate reader (Tecan, Mannedorf, Switzerland). Cell viability was determined using Cell Titer-Glo kit as described above.

NF-κB [2] = experiment: NF-κB activity (SEAP and IL-8 production) in HT-29 clone 34 cells; assay type: cell-based, human
Procedure: The human colonic adenocarcinoma HT-29 clone 34 cell line (passage 42-50) are adherent cells stably transfected with a NF-κB/SEAP reporter plasmid. They were cultured in DMEM high glucose (4.5 g/L) (Invitrogen) containing 1% of stable L-glutamine and supplemented with 10% of heat inactivated (one hour at 56° C.) Foetal Calf Serum (FCS) (Bioconcept, Allschwil, Switzerland), 1% of Penicillin/Streptomycin (Sigma) and 500 μg/ml of Geneticin (PAA, Pasching, Austria) at 37° C. in a 5% CO2/air incubator. Culture medium was renewed every two days until the cell monolayer reached ˜90% confluence. Cells were sub-cultured using 1× Trypsin/EDTA (Sigma).
as §1
Cell culture supernatants were then collected for measurement of NF-κB activity (determination of secreted alkaline phosphatase and IL-8 production) using Phosphalight (Applied Biosystems) and IL-8 singleplex (Meso Scale, Gaithersburg, Md.) kits, respectively.

Nrf2 = Nrf2 reporter assay (ARE-luciferase) in AREc32 cells; assay type: cell-based; conditions: 24 hours
Procedure: Activation of Nrf2 was measured using an Nrf2 reporter assay. This assay is based on the AREc32 cell line, from CRX biosciences (Dundee, Scotland), a stably transfected MCF7 (breast adenocarcinoma) cell line that contains a luciferase gene construct under the control of the ARE. […] Anti-oxidative molecules such as Tert-butylhydroquinone (TBHQ) induce luciferase transcription via the activation of Nrf2 that binds to ARE. Luciferase activity is determined using a luciferase kit form Promega (Madison, Wis.). The luciferase activity is proportional to the activation of Nrf2. […] The luciferase activity and the cell viability (ATP measurements) were determined using the Luciferase and Cell Titer-Glo kits from Promega. For each run the luciferase activities, measured in Relative Light Units (RLU), of all the wells were normalized with the mean of the luciferase activity of the cells only of all the plates. […] For each sample the Nrf2 activation was calculated as follows: 1) The Nrf2 fold induction: The Nrf2 fold induction is very useful for screening purposes. […] The luciferase content per sample allows a semi quantification of the Nrf2 activation by reflecting the amount of the Nrf2 activating molecule. […] The cell viability was also measured using a cell Titer-Glo kit (ATP quantification).

THP-1 blue cells = experiment: Cell viability of THP-1 blue cells (Cell Titer-Glo); assay type: cell-based, human
Procedure: 200000 cells/well were seeded in 100 μl of culture medium in 96 well flat bottom transparent plates. […] 20 μl of culture media containing (or not) LPS 055:B5 (Sigma) (100 ng/ml final) was added and the plates were incubated for 16 hours at 37° C. in a 5% CO2/air incubator.
Cell culture supernatants were carefully transferred to 96 well-plates for NF-κB activity measurement which is proportional to the level of secreted alkaline phosphatase. Briefly, 100 μl of supernatants were mixed with 150 μl of QuantiBlue (Invivogen) in a 96 well-plates incubated for 3 h at 37° C. before OD measurements at 620 nm with Sunrise microplate reader (Tecan, Mannedorf, Switzerland). Cell viability was determined using Cell Titer-Glo kit as described above.

AREc32 cells = experiment: Cell viability of AREc32 cells (ATP quantification, Cell Titer-Glo); assay type: cell-based; conditions: 24 hours
Procedure: To determine the Nrf2 activation the samples were tested on AREc32 cells (seeded in 96 well plates) using 10 independent dilutions (½, ¼, ⅙, 1/10, 1/15, 1/20, 1/25, 1/30, 1/40 and 1/50) and incubated for 24 hours at 37° C. in a 5% CO2/air incubator. The luciferase activity and the cell viability (ATP measurements) were determined using the Luciferase and Cell Titer-Glo kits from Promega.
The cell viability was also measured using a cell Titer-Glo kit (ATP quantification).

[3] = HT-29 clone 34 cells stimulated with LPS

## CC(=O)/C=C/C(=O)O [4-oxo-2-pentenoic acid]
HT-29 clone 34 cells
  Doses giving a decrease in cell viability of HT-29 clone 34 cells: > 50 µM
NF-κB [1]
  Doses giving strong NF-κB inhibition: 40 to 75 µM
NF-κB [2]; [3]
  Dose giving the best inhibition of SEAP and IL-8 secretion: 50 µM
  Inhibition of NF-κB activity (in words): inhibits NF-κB activity in a dose dependent manner
NF-κB [2]; HT-29 clone 34 cells, no LPS, doses tested 3 to 400 μM
  NF-κB activity (SEAP or IL-8) in the absence of LPS: no NF-κB activity was observed
Nrf2
  Nrf2 activation (in words): strongly activate Nrf2 in a dose dependent manner
Nrf2; dose range 0 to 200 μM
  Optimal dose of Nrf2 activation: 40 to 50 µM
THP-1 blue cells
  Doses toxic to cells: higher than 75 μM
AREc32 cells
  Doses at which viability of AREc32 cells was not affected: lower than 70 μM
